Results reported in patent US9796704B2, “Substituted quinazolines as receptor-type kinase inhibitors” (Symphony Evolution, Inc., priority 2002, dated 2017).
pIC50: −log10 of the molar value.

What follows are molecules tested against EGFR (Homo sapiens (Human), UniProt P00533) (assay: EGFR kinase inhibition, luciferase-coupled chemiluminescent assay (LCCA)). Settings: read-out: EGFR IC50.
Sequence of EGFR (P00533 672-1210): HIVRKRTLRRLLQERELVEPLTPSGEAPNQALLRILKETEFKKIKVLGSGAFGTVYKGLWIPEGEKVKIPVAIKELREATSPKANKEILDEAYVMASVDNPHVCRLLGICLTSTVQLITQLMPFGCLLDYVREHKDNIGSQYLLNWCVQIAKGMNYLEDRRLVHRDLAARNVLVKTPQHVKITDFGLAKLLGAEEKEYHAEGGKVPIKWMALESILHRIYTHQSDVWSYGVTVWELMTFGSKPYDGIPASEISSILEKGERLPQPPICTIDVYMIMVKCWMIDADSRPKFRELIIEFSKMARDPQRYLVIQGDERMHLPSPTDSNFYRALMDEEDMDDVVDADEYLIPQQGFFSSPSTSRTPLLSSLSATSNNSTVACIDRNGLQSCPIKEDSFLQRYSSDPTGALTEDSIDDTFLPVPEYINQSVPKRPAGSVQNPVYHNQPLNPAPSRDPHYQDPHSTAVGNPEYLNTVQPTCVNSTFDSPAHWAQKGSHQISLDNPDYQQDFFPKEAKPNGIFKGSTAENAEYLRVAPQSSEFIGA

Structure (SMILES) | pIC50
COc1cc2c(Nc3cc(Cl)ccc3F)ncnc2cc1O[C@@H]1CO[C@@H]2[C@H]1OC[C@H]2F [Example 93, 1,4:3,6-dianhydro-5-O-[4-[(5-chloro-2-fluorophenyl)amino]-6-(methyloxy)quinazolin-7-yl]-2-deoxy-2-fluoro-D-iditol] | > 7.30
COc1cc2c(Nc3ccccc3F)ncnc2cc1O[C@@H]1CO[C@@H]2[C@H]1OC[C@H]2F [Example 113, 1,4:3,6-dianhydro-2-deoxy-2-fluoro-5-O-[4-[(2-fluorophenyl)amino]-6-(methyloxy)quinazolin-7-yl]-D-iditol] | > 7.30
C=CCCCCN1CCOC(COc2cc3ncnc(Nc4ccc(Cl)c(Cl)c4)c3cc2OC)C1 (stereo not drawn) [Example 274, N-(3,4-dichlorophenyl)-7-{[(4-hex-5-en-1-ylmorpholin-2-yl)methyl]oxy}-6-(methyloxy)quinazolin-4-amine] | > 7.30
COc1ccc(-c2cc(COc3cc4ncnc(Nc5ccc(Cl)c(Cl)c5)c4cc3OC)on2)cc1 [Example 180, N-(3,4-dichlorophenyl)-6-(methyloxy)-7-[({3-[4-(methyloxy)phenyl]isoxazol-5-yl}methyl)oxy]quinazolin-4-amine] | > 7.30
COc1cc2c(Nc3ccc(Cl)c(C(F)(F)F)c3)ncnc2cc1O[C@@H]1CO[C@@H]2[C@H]1OC[C@H]2F [Example 121, 1,4:3,6-dianhydro-5-O-[4-{[4-chloro-3-(trifluoromethyl)phenyl]amino}-6-(methyloxy)quinazolin-7-yl]-2-deoxy-2-fluoro-D-iditol] | > 7.30
COc1cc2c(Nc3cc(F)c(Oc4ccc(Cl)cc4)c(F)c3)ncnc2cc1O[C@@H]1CO[C@@H]2[C@H]1OC[C@H]2F [Example 101, 1,4:3,6-dianhydro-5-O-[4-({4-[(4-chlorophenyl)oxy]-3,5-difluorophenyl}amino)-6-(methyloxy)quinazolin-7-yl]-2-deoxy-2-fluoro-D-iditol] | > 7.30

Second part, the molecule after the results:

pIC50 | Structure (SMILES)
> 7.30 | COc1cc2c(Nc3ccccc3Cl)ncnc2cc1O[C@@H]1CO[C@@H]2[C@H]1OC[C@H]2F [Example 112, 1,4:3,6-dianhydro-5-O-[4-[(2-chlorophenyl)amino]-6-(methyloxy)quinazolin-7-yl]-2-deoxy-2-fluoro-D-iditol]
> 7.30 | COc1cc2c(Nc3c(F)cc(F)cc3F)ncnc2cc1O[C@@H]1CO[C@@H]2[C@H]1OC[C@H]2F [Example 100, 1,4:3,6-dianhydro-2-deoxy-2-fluoro-5-O-{6-(methyloxy)-4-[(2,4,6-trifluorophenyl)amino]quinazolin-7-yl}-D-iditol]
> 7.30 | COc1cc2c(Nc3ccc(Br)cc3)ncnc2cc1O[C@@H]1CO[C@@H]2[C@H]1OC[C@H]2F [Example 130, 1,4:3,6-dianhydro-5-O-[4-[(4-bromophenyl)amino]-6-(methyloxy)quinazolin-7-yl]-2-deoxy-2-fluoro-D-iditol]
> 7.30 | COc1cc2c(Nc3ccc(F)cc3Cl)ncnc2cc1O[C@@H]1CO[C@@H]2[C@H]1OC[C@H]2F [Example 85, 1,4:3,6-dianhydro-5-O-[4-[(2-chloro4-fluorophenyl)amino]-6-(methyloxy)quinazolin-7-yl]-2-deoxy-2-fluoro-D-iditol]
> 7.30 | CCN1CCC[C@H]1c1nc(COc2cc3ncnc(Nc4ccc(Cl)c(Cl)c4)c3cc2OC)cs1 [Example 256, N-(3,4-dichlorophenyl)-7-[({2-[(2S)-1-ethylpyrrolidin-2-yl]-1,3-thiazol-4-yl}methyl)oxy]-6-(methyloxy)quinazolin-4-amine]
> 7.30 | COc1cc(Nc2ncnc3cc(O[C@@H]4CO[C@@H]5[C@H]4OC[C@H]5F)c(OC)cc23)c(OC)cc1Cl [Example 136, 1,4:3,6-dianhydro-5-O-[4-{[4-chloro-2,5-bis(methyloxy)phenyl]amino}-6-(methyloxy)quinazolin-7-yl]-2-deoxy-2-fluoro-D-iditol]
